Measurements published in patent US9210928B2, “Plant development control composition” (Syngenta Crop Protection, LLC, priority 2008, dated 2015).
“Also recorded” adds a separate entry of the source.

What was measured:
[1] = biological target: recombinant NCED; conditions: read-out: Ki, reversible competitive inhibitor of recombinant NCED; cited from earlier work
[2] = system: abscisic acid production in planta; conditions: 50-100 μM concentration; cited from earlier work
[3] = biological target: LeCCD1a (Solanum lycopersicum, UniProt Q6E4P5); assay: In vitro LeCCD1a enzyme assay (recombinant cell-free extract, colourimetric, apo-8′-carotenal substrate); type: biochemical, tomato (Solanum lycopersicum); conditions: for IC50: E. coli cell extract with recombinant CCD, read-out: LeCCD1a (9,10/9′,10′) IC50; for inhibition at 100 µM: read-out: LeCCD1a (9,10/9′,10′) Inhibition @ 100 μM (%)
Chain of LeCCD1a (Q6E4P5 1-545): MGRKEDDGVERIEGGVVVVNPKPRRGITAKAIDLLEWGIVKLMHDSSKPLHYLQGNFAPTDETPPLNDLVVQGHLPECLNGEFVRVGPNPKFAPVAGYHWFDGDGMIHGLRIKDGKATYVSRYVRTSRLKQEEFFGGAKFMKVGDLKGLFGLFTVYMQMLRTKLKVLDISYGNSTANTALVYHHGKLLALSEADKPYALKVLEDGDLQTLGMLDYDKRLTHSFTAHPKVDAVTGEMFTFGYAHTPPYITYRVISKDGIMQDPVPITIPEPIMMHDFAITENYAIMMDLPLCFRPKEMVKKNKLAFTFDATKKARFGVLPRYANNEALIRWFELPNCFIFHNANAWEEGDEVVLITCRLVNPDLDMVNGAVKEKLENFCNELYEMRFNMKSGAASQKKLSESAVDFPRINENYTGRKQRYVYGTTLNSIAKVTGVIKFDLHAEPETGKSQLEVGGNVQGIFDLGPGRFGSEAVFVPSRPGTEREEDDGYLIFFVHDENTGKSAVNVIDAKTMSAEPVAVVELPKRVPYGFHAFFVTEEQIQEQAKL
Method: In vitro LeCCD1a enzyme assay—We over-expressed LeCCD1a in E. coli, as a GST-fusion protein (supplemental methods). The in vitro assay of LeCCD1a was based on reported methods (37), and was carried out in a 200 μl total volume in a 96-well microtitre plate, with the signal detected at 485 nm. To prepare substrate solution for each assay, 5 μl of 4% (w/v in ethanol) apo-8′-carotenal (Sigma) was mixed with 25 μl of 4% (w/v in ethanol) β-octylglucoside (Sigma), the ethanol was then evaporated under nitrogen, and the residue dissolved in 150 μl PBS buffer containing 10 mM sodium ascorbate by incubation at 20° C. for 30 min. 50 μl of cell-free extract containing recombinant LeCCD1a was added, and the reactions monitored over 30 min at 20° C.
(§1) For the production of cell-free extracts of LeCCD1a and LeNCED1, cultures were grown to an OD of 0.6 at 37° C., then isopropyl β-D-1-thiogalactopyranoside (IPTG) was added to 0.2 mM and the cultures grown overnight at 20° C. The cells (200 ml cultures) were harvested by centrifugation (5000 rpm, 10 min) and the pellet re-suspended in 4 ml PBS, 0.1% Triton-X 100. Lysozyme was added to a final concentration of 25 μg ml^−1 and the solution incubated at room temperature for 15 min before sonication (3×30 s at 18Ω) on ice. The lysate was then centrifuged (13000 rpm, 15 min, 4° C.) and the supernatant used for the assay.
(§2) Specificity of inhibition in vitro for tomato genes LeNCED1 and LeCCD1a—In order to screen the inhibitors against enzymes which cleave carotenoids at the 9,10 position, we used the recombinant tomato LeCCD1a protein (44), because this type of enzyme can be studied using an in vitro colourimetric assay with β-apo-8′-carotenal as substrate (37). To establish the specificity of the inhibitors, they were also tested against the tomato LeNCED1 recombinant protein which cleaves 9-cis carotenoids at the 11,12 position (45). For this enzyme, the cleavage reaction was monitored by C18 reverse phase HPLC, using 9′-cis-neoxanthin as substrate.

[4] = biological target: T1, LeNCED1 (Solanum lycopersicum, UniProt O24023); assay: In vitro NCED enzyme assay (recombinant LeNCED1 cell-free extract, HPLC, 9′-cis-neoxanthin substrate); type: biochemical, tomato
T1 construct: made in house; host or cells: E. coli Rosetta (DE3); crude cell-free extract
T1 sequence (O24023 17-605): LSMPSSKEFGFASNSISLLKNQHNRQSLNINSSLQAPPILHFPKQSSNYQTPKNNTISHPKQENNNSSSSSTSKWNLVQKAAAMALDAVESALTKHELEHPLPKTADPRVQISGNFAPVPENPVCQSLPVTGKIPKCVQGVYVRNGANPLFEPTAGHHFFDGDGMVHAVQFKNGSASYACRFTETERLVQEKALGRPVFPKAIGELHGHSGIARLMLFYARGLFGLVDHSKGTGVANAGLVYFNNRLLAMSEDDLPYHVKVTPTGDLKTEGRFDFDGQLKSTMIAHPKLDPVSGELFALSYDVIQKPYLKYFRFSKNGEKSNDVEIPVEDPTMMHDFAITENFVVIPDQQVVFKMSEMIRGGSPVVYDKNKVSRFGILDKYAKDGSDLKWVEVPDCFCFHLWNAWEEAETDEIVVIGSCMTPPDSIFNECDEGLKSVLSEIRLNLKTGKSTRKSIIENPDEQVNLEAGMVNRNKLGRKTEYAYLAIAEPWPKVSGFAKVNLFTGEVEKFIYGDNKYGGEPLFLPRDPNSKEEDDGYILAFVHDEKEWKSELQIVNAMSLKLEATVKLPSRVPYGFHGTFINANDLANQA
Method: In vitro NCED enzyme assay—We over-expressed LeNCED1 in E. coli, as an N-terminal His6-fusion protein (supplemental methods). Cell-free extract containing recombinant LeNCED1 was prepared in 100 mM bis-tris buffer (pH 6.7). 15 μl extract was pre-activated by addition of iron(II) sulphate (20 mM, 1 μl) and ascorbic acid (20 mM, 1 μl) on ice for 2 min, prior to use. This aliquot of enzyme was then added to an assay (150 μl total volume) containing 100 mM bis-tris buffer (pH 6.7), 0.05% v/v Triton X-100, 1.0 mg/ml catalase, and 3 μg 9′-cis-neoxanthin. The 9′-cis-neoxanthin substrate was prepared as described in supplemental methods. The enzyme assay was incubated for 15 min in the dark at 20° C. Water (700 μl) was then added, and the products extracted with ethyl acetate (3×1 ml). The organic solvent was removed at reduced pressure, the residue was dissolved in methanol (200 μl), and then 100 μl was injected onto a Phenomenex C18 reverse phase HPLC column, and a gradient of 5-10% methanol in acetonitrile/0.05% triethylamine was applied at 0.5 ml/min over 20 min, detecting at 440 nm. NCED inhibition assays contained 1-100 μM inhibitor; inhibition was calculated from the product formation after 15 min, compared to a control assay with no inhibitor present.
as §1, §2

[5] = system: excised Arabidopsis nodes; assay: Axillary bud outgrowth assay in Arabidopsis stem sections; type: in vivo; conditions: 100 μM inhibitor, 1 μM NAA; Col-0
Method: Axillary bud outgrowth assay in Arabidopsis stein sections—The assays were performed essentially as described (40) with the following modifications. Small Petri dishes (50 mm diameter, 20 mm depth) were filled with 10 ml of ATS (39) supplemented with 1% agar and 1% sucrose. Inhibitors and α-naphthalene acetic acid (NAA) were added to the agar before pouring to give 100 μM and 1 μM, respectively. Thus, when the central strip was cut out of the agar, both the apical and basal media contained both NAA and inhibitor. Any nodes in which the apical end had curled out of the media or which bud length was less than 2 mm at the end of the experiment were discounted. Measurement of the shoot length was performed every 24 hours. For each assay a logistic curve was fitted using Genstat (10th edition, VSN international) with the fitcurve directive and the lag phase was calculated by extrapolating the linear part of the curve and the initial plateau (see supplementary methods). The x value of where these two lines intersected represented the lag phase.
A logistic curve, y=A+C/(1+e^−B(t−m)), was fitted to the data for each shoot using GenStat (10th edition). The lag phase was then calculated using the equation m−(2/B) which effectively gave the t value (time) of the intercept of the two extrapolated lines from the linear part of the curve and the initial plateau.
Stimulation of shoot branching in Arabidopsis stem sections by application of inhibitor—Auxin inhibits the outgrowth of axillary buds in wild-type Arabidopsis plants. In the AtCCD7 and AtCCD8 null mutants (max3 and max4, respectively) the response to auxin is reduced, presumably due to a block in formation of an apocarotenoid hormone (recently shown (17,18) to be strigolactone or a related compound) that suppresses branching (19), and axillary buds extend earlier, leading to formation of side branches. An in vitro assay was previously developed in which the growth of axillary buds from isolated sections of Arabidopsis stem was used to assess max mutants (40). […]

[6] = system: whole Arabidopsis plants; assay: Shoot branching in whole Arabidopsis plants grown in agar; type: in vivo; conditions: for unintended effects on whole Arabidopsis plants: applied to whole plants; for branching phenotype of whole plants (in words): plants grown under sterile conditions in agar
Method: Branching phenotypes of Arabidopsis plants grown in agar media for 45 days supplemented with inhibitor D6. Images are shown: (a) Col-0 (WT) without inhibitor; (b) max3-9 mutant without inhibitor; (c) Col-0 with 100 μM D6. The numbers (d) of rosette branches were quantified. Error bars represent standard error of the mean, n=6 to 12.
Stimulation of shoot branching in whole Arabidopsis plants—Inhibitors were also applied to Arabidopsis whole plants grown under sterile conditions in agar. […] Inhibitor treated plants were intermediate (mean of approximately 2 branches) and so partially mimicked max3-9 (FIG. 6d).

[7] = system: SP12 tomato seeds; assay: Germination assay, SP12 tomato seed over-expressing LeNCED1; type: in vivo, Solanum lycopersicum; conditions: for stimulation of germination of SP12 seeds: compounds D1 to D7 tested, 1% DMSO
From the text: (§3) Seeds used were “wild-type” tomato (Solanum lycopersicum cv. Ailsa craig near-isogenic line containing the Tm2^a tobacco mosaic virus resistance gene). In addition, we used transgenic tomato seed (Solanum lycopersicum cv. Ailsa craig) transformed with a construct designed to over-express the gene LeNCED1, encoding 9-cis-epoxycarotenoid dioxygenase. These transgenic seeds are known as D9 [Thompson, A. J., et al., Ectopic expression of a tomato 9-cis-epoxycarotenoid dioxygenase gene causes over-production of abscisic acid. Plant Journal, 2000. 23(3): p. […]], but were later renamed as SP12 [Thompson, A. J., et al., Regulation and manipulation of ABA biosynthesis in roots. Plant Cell and Environment, 2007. 30: p. […] Plant Journal, 2000. 23(3): p. 363-74.5].
(§4) Each assay consisted of a 10 cm vented Petri dish containing an 8.5 cm diameter circle of Whatman Grade 1 filter paper (Whatman International Ltd, Maidstone, England) soaked in 1 ml of test solution. Seeds were surface sterilized with 30% household bleach for 30 mins, rinsed in distilled water, and then 20 seeds were placed on the filter paper in each Petri dish. The Petri dishes were incubated at high relative humidity (>95%) at 25° C. in the dark. Seed germination, defined as visible emergence of the radicle, was scored daily. Replicate plates were used for each chemical treatment.
Hydroxamic acids were dissolved in dimethylsulphoxide (DMSO), and aqueous test solutions were prepared such that the final concentration of DMSO was 1% v/v. Control solution consisted of 1% v/v DMSO in water. Norflurazon was prepared as a stock solution at 20 mg ml^−1 in ethanol, and then diluted with water to a final concentration of 5 mg l^−1, with ethanol present at 0.025% v/v.
Transgenic SP12 tomato seeds we created by the inventors; these seeds have high levels of ABA and increased dormancy [Thompson, A. J., et al., Ectopic expression of a tomato 9-cis-epoxycarotenoid dioxygenase gene causes over-production of abscisic acid. Plant Journal, 2000. 23(3): p. 363-74 and Thompson, A. J., et al., Regulation and manipulation of ABA biosynthesis in roots. Plant Cell and Environment, 2007. 30: p. 67-78].

[8] = system: wild-type tomato seeds (cv. Ailsa Craig); assay: Germination assay, wild-type tomato seed; type: in vivo, Solanum lycopersicum; conditions: dose-dependent; FIG. 9
From the text: as §3
as §4, with “treatment. […]” for “treatment.”

[9] = biological target: AtNCED3 (Arabidopsis thaliana, UniProt Q9LRR7); conditions: 100 μM; cited from earlier work
Chain of AtNCED3 (Q9LRR7 41-599): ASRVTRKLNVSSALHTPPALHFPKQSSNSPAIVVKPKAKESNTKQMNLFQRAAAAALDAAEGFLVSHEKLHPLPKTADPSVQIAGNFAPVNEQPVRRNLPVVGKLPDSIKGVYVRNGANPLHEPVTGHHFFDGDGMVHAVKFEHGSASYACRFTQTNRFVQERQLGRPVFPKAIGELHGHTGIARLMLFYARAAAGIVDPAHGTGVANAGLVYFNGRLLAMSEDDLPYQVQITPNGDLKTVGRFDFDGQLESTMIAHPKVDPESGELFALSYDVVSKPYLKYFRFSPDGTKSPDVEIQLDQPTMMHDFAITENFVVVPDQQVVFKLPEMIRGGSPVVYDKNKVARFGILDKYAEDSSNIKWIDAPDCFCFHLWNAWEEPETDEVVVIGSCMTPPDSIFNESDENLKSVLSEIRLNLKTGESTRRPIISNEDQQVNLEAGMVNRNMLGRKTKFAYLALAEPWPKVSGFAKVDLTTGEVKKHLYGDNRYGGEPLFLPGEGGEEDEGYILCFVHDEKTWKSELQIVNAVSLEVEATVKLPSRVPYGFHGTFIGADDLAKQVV

[10] = biological target: AtCCD1 (Arabidopsis thaliana, UniProt O65572); conditions: 100 μM; cited from earlier work
Chain of AtCCD1 (O65572 whole entry): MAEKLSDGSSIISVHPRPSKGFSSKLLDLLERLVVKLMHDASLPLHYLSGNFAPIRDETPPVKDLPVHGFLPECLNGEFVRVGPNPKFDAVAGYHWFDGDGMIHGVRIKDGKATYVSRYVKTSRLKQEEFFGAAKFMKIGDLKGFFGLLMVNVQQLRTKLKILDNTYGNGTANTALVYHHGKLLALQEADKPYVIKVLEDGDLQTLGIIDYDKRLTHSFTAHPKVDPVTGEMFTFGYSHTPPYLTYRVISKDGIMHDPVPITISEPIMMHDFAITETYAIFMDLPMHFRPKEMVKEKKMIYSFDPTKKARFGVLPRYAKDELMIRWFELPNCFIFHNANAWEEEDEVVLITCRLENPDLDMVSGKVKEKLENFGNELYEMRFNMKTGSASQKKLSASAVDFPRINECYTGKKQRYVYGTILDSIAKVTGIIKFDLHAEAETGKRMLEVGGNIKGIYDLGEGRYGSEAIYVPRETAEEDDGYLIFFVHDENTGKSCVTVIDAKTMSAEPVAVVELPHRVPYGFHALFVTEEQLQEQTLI

Compound	Ki [1] [µM]	IC50 [3] [µM]	inhibition at 100 µM [3] [%]	unintended effects on whole Arabidopsis plants [6]	branching phenotype of whole plants (in words) [6]	stimulation of germination of SP12 seeds [7]	inhibition of LeNCED1 in vitro (in words) [4]	also measured
COC(=O)CN(C/C=C/c1ccc(OC)c(OC)c1)Cc1ccc(F)cc1 [Abamine, reference compound]	39	210	–	–	–	–	–	abscisic acid production in planta [2]: inhibited abscisic acid production in planta; LeNCED1 (11,12) Inhibition @ 100 μM (%) ([4]; 100 μM inhibitor, E. coli cell extract with recombinant CCD): 20%
O=C(Cc1ccc(O)cc1)N(O)Cc1ccccc1 [Compound D1, N-benzyl-4-hydroxyphenylacetyl hydroxamic acid]	–	0.8 to 0.9	> 95	grew normally	without an increase in branching	–	–	advancement of the timing of bud outgrowth in wild-type [5]: one; inhibition of LeCCD1 in vitro (in words) [3]: good inhibitors of the 9,10 enzymes in vitro
COc1ccc(CC(=O)N(O)Cc2ccc(F)cc2)cc1 [Compound D4, N-(4-fluorobenzyl)-4-methoxyphenylacetyl hydroxamic acid]	–	–	> 95	without negative unintended effects on whole plants	bushy appearance	most active compounds in stimulating germination; also recorded: promoted germination of SP12 seeds	greatest inhibition of NCED in vitro	plant development following application to seeds ([7]; 2 mM): Some delay in development; plant development following application to wild-type or SP12 seeds ([7]; concentrations <1 mM): Normal plant development; germination of wild-type tomato seeds [8]: germination of these seeds was also promoted
O=C(Cc1ccc2c(c1)OCO2)N(O)Cc1ccc(F)cc1 [Compound D7, N-(4-fluorobenzyl)-3,4-methylenoxyphenylacetyl hydroxamic acid]	–	–	> 95	–	–	most active compounds in stimulating germination	greatest inhibition of NCED in vitro	–
abamineSG	18.5	–	–	–	–	–	–	inhibition of AtNCED3 [9]: 78%; inhibition of AtCCD1 [10]: ≤ 20%
